Source: the kinase profiling compilation of Christmann-Franck et al. (2016)

How the values were obtained:
Assay in all cases: KINOMEscan competition binding
Conditions in all cases: compound 10.0 µM
CIT (human) = CIT (human) (UniProt O14578)
HIPK4 (human) = HIPK4 (human) (UniProt Q8NE63)
LTK (human) = LTK (human) (UniProt P29376)
PRKG1 (human) = PRKG1 (human) (UniProt Q13976)
CHEK2 (human) = CHEK2 (human) (UniProt O96017)
[1] = target: JAK2 JH1 catalytic (human) (UniProt O60674)
DAPK2 (human) = DAPK2 (human) (UniProt Q9UIK4)
RPS6KA6 KD2 (human) = RPS6KA6 KD2 (human) (UniProt Q9UK32)
FGFR4 (human) = FGFR4 (human) (UniProt P22455)
IKBKE (human) = IKBKE (human) (UniProt Q14164)
MAP2K5 (human) = MAP2K5 (human) (UniProt Q13163)
CSK (human) = CSK (human) (UniProt P41240)
MYO3A (human) = MYO3A (human) (UniProt Q8NEV4)
MAPK7 (human) = MAPK7 (human) (UniProt Q13164)
GRK7 (human) = GRK7 (human) (UniProt Q8WTQ7)
MAK (human) = MAK (human) (UniProt P20794)
INSRR (human) = INSRR (human) (UniProt P14616)
NEK7 (human) = NEK7 (human) (UniProt Q8TDX7)
CAMK1G (human) = CAMK1G (human) (UniProt Q96NX5)
CAMK2B (human) = CAMK2B (human) (UniProt Q13554)
[2] = target: JAK1 JH1 catalytic (human) (UniProt P23458)
SRMS (human) = SRMS (human) (UniProt Q9H3Y6)
STK4 (human) = STK4 (human) (UniProt Q13043)
RPS6KA4 KD2 (human) = RPS6KA4 KD2 (human) (UniProt O75676)
FLT3 (human) = FLT3 (human) (UniProt P36888)
CAMK2A (human) = CAMK2A (human) (UniProt Q9UQM7)
AXL (human) = AXL (human) (UniProt P30530)
GAK (human) = GAK (human) (UniProt O14976)
MAPK10 (human) = MAPK10 (human) (UniProt P53779)
CDKL2 (human) = CDKL2 (human) (UniProt Q92772)
YSK4 (human) = YSK4 (human) (UniProt Q56UN5)
TEK (human) = TEK (human) (UniProt Q02763)
MAP3K4 (human) = MAP3K4 (human) (UniProt Q9Y6R4)
AAK1 (human) = AAK1 (human) (UniProt Q2M2I8)
DCLK1 (human) = DCLK1 (human) (UniProt O15075)
PRKCH (human) = PRKCH (human) (UniProt P24723)
HIPK1 (human) = HIPK1 (human) (UniProt Q86Z02)
PLK2 (human) = PLK2 (human) (UniProt Q9NYY3)
GSK3B (human) = GSK3B (human) (UniProt P49841)
PKN2 (human) = PKN2 (human) (UniProt Q16513)
PKN2 (human), sequence (Q16513 whole entry, looked up): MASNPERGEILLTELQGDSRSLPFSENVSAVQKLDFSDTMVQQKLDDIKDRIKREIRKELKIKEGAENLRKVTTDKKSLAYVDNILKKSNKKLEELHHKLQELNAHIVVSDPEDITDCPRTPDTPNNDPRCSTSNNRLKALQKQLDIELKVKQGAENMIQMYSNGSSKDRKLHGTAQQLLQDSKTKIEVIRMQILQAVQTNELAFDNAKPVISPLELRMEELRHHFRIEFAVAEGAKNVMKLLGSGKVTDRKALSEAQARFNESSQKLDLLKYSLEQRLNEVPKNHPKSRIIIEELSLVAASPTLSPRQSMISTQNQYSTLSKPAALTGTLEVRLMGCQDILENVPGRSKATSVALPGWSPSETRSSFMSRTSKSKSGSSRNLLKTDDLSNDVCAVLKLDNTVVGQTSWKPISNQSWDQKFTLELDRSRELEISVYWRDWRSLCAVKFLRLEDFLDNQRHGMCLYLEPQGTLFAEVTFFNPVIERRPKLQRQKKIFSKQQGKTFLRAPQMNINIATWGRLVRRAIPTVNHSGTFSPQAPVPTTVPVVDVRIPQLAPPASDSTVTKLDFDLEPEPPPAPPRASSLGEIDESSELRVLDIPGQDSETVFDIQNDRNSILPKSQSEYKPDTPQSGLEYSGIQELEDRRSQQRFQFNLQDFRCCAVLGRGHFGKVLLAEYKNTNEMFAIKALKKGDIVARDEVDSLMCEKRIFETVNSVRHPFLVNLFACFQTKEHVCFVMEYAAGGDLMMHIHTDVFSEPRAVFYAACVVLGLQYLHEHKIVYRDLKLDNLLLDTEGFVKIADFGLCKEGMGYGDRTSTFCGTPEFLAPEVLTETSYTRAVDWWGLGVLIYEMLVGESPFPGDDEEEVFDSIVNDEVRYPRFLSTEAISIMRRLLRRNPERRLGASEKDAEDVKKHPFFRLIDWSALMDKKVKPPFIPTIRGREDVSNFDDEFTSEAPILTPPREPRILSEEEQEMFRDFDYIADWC

YSK4 (human), sequence (Q56UN5 whole entry, looked up): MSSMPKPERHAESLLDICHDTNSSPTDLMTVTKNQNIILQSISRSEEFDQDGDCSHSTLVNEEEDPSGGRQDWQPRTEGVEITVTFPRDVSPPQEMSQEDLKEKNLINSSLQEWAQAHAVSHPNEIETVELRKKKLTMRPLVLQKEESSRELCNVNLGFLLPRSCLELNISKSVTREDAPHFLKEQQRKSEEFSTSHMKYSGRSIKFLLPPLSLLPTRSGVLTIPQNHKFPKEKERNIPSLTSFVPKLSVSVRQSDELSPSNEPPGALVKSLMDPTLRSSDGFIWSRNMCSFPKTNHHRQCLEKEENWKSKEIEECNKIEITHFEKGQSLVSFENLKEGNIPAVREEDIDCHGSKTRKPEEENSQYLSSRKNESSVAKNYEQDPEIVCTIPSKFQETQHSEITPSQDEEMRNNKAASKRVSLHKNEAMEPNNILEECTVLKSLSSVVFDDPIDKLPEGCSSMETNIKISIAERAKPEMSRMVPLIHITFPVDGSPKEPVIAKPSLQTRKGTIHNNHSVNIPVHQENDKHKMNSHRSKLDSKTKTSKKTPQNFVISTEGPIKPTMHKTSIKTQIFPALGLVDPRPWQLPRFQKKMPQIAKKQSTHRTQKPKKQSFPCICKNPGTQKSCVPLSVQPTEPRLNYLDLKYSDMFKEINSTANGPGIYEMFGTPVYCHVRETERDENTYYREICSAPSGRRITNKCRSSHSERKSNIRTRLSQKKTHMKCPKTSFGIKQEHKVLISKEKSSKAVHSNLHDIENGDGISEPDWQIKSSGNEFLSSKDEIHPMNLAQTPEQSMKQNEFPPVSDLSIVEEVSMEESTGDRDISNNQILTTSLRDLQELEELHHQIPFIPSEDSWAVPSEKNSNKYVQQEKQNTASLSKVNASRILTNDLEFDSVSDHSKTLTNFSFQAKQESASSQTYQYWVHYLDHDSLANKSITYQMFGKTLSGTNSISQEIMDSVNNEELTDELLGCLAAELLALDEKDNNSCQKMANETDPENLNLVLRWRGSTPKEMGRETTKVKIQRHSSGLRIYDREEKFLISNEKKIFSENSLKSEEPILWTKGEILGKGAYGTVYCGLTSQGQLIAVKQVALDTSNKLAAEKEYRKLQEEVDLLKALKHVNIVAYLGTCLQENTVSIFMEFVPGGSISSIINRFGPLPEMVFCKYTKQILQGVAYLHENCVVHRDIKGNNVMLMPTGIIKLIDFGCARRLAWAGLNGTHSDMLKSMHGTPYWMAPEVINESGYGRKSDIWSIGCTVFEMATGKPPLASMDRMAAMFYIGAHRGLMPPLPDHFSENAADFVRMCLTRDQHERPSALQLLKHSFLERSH
GSK3B (human), sequence (P49841 whole entry, looked up): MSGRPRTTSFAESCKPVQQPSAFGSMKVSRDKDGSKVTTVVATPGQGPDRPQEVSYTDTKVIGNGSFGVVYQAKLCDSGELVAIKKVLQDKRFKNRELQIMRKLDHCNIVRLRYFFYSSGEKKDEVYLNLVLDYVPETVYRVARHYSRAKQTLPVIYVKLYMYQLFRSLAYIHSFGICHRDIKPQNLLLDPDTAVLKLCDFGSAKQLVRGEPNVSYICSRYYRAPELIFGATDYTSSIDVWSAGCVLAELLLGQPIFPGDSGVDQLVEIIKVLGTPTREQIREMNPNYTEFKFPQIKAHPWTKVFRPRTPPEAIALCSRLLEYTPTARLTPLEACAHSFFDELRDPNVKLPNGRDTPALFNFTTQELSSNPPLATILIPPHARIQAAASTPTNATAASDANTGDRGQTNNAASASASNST
PRKG1 (human), sequence (Q13976 whole entry, looked up): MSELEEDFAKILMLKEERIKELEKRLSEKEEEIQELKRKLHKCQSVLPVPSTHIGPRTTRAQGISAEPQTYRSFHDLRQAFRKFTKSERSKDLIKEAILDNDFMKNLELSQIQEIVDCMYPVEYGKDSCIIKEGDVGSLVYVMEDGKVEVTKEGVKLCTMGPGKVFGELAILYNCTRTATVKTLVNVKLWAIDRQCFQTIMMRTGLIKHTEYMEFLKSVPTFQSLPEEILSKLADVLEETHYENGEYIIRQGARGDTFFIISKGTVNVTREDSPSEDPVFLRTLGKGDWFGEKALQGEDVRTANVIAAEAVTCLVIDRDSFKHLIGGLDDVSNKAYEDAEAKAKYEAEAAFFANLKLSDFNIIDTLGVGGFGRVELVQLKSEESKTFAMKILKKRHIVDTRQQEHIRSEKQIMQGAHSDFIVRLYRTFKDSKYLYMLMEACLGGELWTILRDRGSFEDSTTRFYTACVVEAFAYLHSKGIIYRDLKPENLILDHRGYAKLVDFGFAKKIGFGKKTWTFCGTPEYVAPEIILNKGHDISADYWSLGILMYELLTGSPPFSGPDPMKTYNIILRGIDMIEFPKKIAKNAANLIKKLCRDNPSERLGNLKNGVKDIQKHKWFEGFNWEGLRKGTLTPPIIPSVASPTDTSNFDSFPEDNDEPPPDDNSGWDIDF
HIPK4 (human), sequence (Q8NE63 whole entry, looked up): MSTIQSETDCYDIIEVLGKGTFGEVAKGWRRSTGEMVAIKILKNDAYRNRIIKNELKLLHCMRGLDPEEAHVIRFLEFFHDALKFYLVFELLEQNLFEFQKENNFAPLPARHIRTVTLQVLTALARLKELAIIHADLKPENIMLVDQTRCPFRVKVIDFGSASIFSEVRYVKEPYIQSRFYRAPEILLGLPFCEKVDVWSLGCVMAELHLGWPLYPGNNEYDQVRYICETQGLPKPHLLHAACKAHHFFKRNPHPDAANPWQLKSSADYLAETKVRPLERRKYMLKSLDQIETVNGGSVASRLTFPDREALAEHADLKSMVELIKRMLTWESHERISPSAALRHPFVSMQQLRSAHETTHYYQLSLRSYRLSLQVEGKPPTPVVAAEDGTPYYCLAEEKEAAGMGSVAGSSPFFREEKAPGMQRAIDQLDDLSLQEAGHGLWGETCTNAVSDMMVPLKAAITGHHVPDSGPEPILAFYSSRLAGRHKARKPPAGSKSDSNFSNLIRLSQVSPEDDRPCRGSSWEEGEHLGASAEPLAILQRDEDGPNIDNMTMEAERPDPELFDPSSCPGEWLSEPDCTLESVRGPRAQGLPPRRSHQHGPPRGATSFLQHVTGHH
GRK7 (human), sequence (Q8WTQ7 whole entry, looked up): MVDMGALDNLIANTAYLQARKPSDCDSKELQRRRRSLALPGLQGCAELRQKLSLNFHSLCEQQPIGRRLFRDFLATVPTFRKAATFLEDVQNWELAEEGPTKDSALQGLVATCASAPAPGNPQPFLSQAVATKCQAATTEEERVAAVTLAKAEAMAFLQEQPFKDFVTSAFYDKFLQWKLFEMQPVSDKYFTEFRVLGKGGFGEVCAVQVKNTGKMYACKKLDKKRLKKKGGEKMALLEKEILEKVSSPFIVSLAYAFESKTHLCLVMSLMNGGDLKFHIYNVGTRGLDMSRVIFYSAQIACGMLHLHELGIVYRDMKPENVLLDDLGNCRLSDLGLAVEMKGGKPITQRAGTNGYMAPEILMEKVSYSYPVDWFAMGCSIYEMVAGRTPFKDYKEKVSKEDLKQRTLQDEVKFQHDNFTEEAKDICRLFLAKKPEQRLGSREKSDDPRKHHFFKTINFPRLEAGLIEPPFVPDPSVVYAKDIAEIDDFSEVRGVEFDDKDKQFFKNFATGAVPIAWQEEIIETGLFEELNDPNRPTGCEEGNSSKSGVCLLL
CAMK2A (human), sequence (Q9UQM7 whole entry, looked up): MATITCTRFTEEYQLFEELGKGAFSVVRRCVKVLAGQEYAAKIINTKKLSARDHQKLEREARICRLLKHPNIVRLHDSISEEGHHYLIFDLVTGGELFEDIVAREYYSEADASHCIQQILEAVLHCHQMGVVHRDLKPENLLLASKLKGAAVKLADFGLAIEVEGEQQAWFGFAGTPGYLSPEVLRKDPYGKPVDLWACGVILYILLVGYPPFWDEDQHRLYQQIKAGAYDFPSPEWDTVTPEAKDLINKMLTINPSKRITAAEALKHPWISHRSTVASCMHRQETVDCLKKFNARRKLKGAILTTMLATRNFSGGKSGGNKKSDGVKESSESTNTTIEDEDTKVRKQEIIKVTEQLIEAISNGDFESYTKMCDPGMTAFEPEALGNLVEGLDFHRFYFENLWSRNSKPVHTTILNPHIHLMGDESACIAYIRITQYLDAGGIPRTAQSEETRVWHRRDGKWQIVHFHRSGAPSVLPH

N#Cc1cc(-c2ccnc(Nc3ccc(-n4cnc(-c5cccnc5)n4)cc3)n2)cc(N2CCOCC2)c1
kinase still bound, per cent of control (CIT (human)): 0.9% | kinase still bound, per cent of control (HIPK4 (human)): 13% | kinase still bound, per cent of control (LTK (human)): 77% | kinase still bound, per cent of control (PRKG1 (human)): 100% | kinase still bound, per cent of control (CHEK2 (human)): 100% | kinase still bound, per cent of control [1]: 0% | kinase still bound, per cent of control (DAPK2 (human)): 96% | kinase still bound, per cent of control (RPS6KA6 KD2 (human)): 88% | kinase still bound, per cent of control (FGFR4 (human)): 99% | kinase still bound, per cent of control (IKBKE (human)): 37% | kinase still bound, per cent of control (MAP2K5 (human)): 8.6% | kinase still bound, per cent of control (CSK (human)): 66% | kinase still bound, per cent of control (MYO3A (human)): 69% | kinase still bound, per cent of control (MAPK7 (human)): 100% | kinase still bound, per cent of control (GRK7 (human)): 70% | kinase still bound, per cent of control (MAK (human)): 49% | kinase still bound, per cent of control (INSRR (human)): 68% | kinase still bound, per cent of control (NEK7 (human)): 45% | kinase still bound, per cent of control (CAMK1G (human)): 48% | kinase still bound, per cent of control (CAMK2B (human)): 37% | kinase still bound, per cent of control [2]: 59% | kinase still bound, per cent of control (SRMS (human)): 62% | kinase still bound, per cent of control (STK4 (human)): 89% | kinase still bound, per cent of control (RPS6KA4 KD2 (human)): 100% | kinase still bound, per cent of control (FLT3 (human)): 18% | kinase still bound, per cent of control (CAMK2A (human)): 16% | kinase still bound, per cent of control (AXL (human)): 28% | kinase still bound, per cent of control (GAK (human)): 22% | kinase still bound, per cent of control (MAPK10 (human)): 0.15% | kinase still bound, per cent of control (CDKL2 (human)): 2% | kinase still bound, per cent of control (YSK4 (human)): 0.25% | kinase still bound, per cent of control (TEK (human)): 67% | kinase still bound, per cent of control (MAP3K4 (human)): 50% | kinase still bound, per cent of control (AAK1 (human)): 5.4% | kinase still bound, per cent of control (DCLK1 (human)): 100% | kinase still bound, per cent of control (PRKCH (human)): 83% | kinase still bound, per cent of control (HIPK1 (human)): 2.2% | kinase still bound, per cent of control (PLK2 (human)): 98% | kinase still bound, per cent of control (GSK3B (human)): 3.1% | kinase still bound, per cent of control (PKN2 (human)): 44%
